The values that follow come from patent publication US7452894B2, “Purine derivatives as purinergic receptor antagonists” (Vernalis Research Limited, priority 2001, dated 2008).

One may read the melting point as the temperature of the solid-liquid transition. For orientation: Ki means the dissociation constant of the complex between target and ligand, obtained from inhibition or displacement. A lower Ki goes with a stronger hold on the target.

One data set deals with adenosine A2A receptor. As to conditions: cited from earlier work.
For data set [1], the target named is human adenosine A2A receptors (Homo sapiens, UniProt P29274). In words: Binding affinities at hA2A receptors, displacement of [3H]-CGS 21680. In general terms: In a radioligand displacement assay an active substance lowers the binding of a labelled ligand.
human adenosine A2A receptors, sequence (P29274 whole entry): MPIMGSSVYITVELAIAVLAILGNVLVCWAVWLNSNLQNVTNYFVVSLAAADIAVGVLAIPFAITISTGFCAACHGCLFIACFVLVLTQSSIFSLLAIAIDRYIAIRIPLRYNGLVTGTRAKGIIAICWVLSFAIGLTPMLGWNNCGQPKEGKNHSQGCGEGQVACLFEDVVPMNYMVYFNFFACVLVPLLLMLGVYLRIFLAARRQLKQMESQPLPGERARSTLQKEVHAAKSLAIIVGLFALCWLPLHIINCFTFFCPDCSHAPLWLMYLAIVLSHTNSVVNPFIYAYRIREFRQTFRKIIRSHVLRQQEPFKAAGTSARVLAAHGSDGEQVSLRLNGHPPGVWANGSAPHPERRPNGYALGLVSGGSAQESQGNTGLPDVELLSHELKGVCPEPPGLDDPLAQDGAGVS
The conditions of data set [2]: cited from earlier work.

For the compound `CCCn1c(=O)c2c(nc(/C=C/c3ccc(OC)c(OC)c3)n2C)n(CCC)c1=O` [KF 17837, (E)-8-(3,4-dimethoxystyryl)-1,3-dipropyl-7-methylxanthine], in the data set on adenosine A2A receptor (in vivo), the “anticataleptic effects of a subthreshold dose of L-DOPA plus benserazide” value is listed as “potentiated”; the “catalepsy induced by haloperidol and reserpine” value is listed as “reduced”. Also, the “cataleptic responses induced by intracerebroventricular CGS 21680” value in the data set with adenosine A2A receptor (oral administration) is on record as “significantly ameliorated”.
In turn, `Nc1nc(-c2ccco2)c2ncn(Cc3ccc(Cl)s3)c2n1` [Example 240, 9-(5-Chloro-2-thienylmethyl)-6-(2-furyl)-9H-purine-2-amine] yielded a melting point of 210.9 to 211.5 °C. The inhibition constant Ki in data set [1] came to 7 nM.
For `Nc1nc(-c2ccco2)c2ncn(C(=O)OCc3ccccc3)c2n1` [Example 106, Benzyl 2-amino-6-(2-furyl)-9H-purine-9-carboxylate], the melting point was 161.7 °C (dec.). For the same compound, in data set [1], affinity was put at a Ki of 1 nM.
With `Cc1csc(-c2nc(N)nc3c2ncn3Cc2ccccc2F)n1` [Example 244, 9-(2-Fluorobenzyl)-6-(4-methyl-2-thiazolyl)-9H-purine-2-amine], the melting point came out at 259.2 °C. For the same compound, in data set [1], the Ki turned out to be 7 nM.
`CSc1nc(-c2ccco2)c2nc[nH]c2n1` [Example 13, 6-(2-Furyl)-2-methylthio-1H-purine]: the melting point was in the range of 239.5 to 239.9 °C. In data set [1], this compound returned an inhibition constant Ki of 12 nM.
As for `Cn1c(=O)c2[nH]cnc2n(C)c1=O` [theophylline], the “mean objective disability scores” value in data set [2] (15 Parkinsonian patients, up to 12 weeks, 150 mg/day oral) is “significant improvements”. Besides, the serum theophylline levels in data set [2] (slow release oral preparation 150 mg/day, after one week, Parkinsonian patients) is given as 4.44 mg/L.
Regarding `Cn1cnc(S(=O)(=O)Nc2ccccc2Cn2cnc3c(-c4ccco4)nc(N)nc32)c1` [Example 235, 6-(2-Furyl)-9-(2-(1-methyl-1H-imidazol-4-ylsulphonylamino)benzyl)-9H-purine-2-amine], the melting point lay in the range of 253.1 to 257.1 °C. The compound further showed a Ki in data set [1] of 4 nM.
On the same counts, the results for `Nc1nc(-c2ccco2)c2ncn(CC(=O)Nc3cccc(Cl)c3)c2n1` [Example 141, 2-Amino-N-(3-chlorophenyl)-6-(2-furyl)-9H-purine-9-acetamide] are 278 °C (dec.) and 36 nM.
As to `Cc1ccc(Cn2cnc3c(-c4ccc(C)o4)nc(N)nc32)cc1` [Example 208, 9-(4-Methylbenzyl)-6-(5-methyl-2-furyl)-9H-purine2-amine], the melting point was 210 to 220 °C (dec.). The inhibitory constant (Ki) in data set [1] turned out to be 6 nM.
